According to ChEMBL document CHEMBL4043216, “Design and synthesis of benzoacridines as estrogenic and anti-estrogenic agents” (Bioorg Med Chem, 2017):
pEC50, pIC50: −log10 of the molar value. Structures can show the parent of a compound that is named as a salt. Each block holds one compound with its values, some of them ahead of it. Active and inactive are the calls of the source. No cut-off for these calls is given here.

What was measured:
[1] = in vitro; conditions: human
Description: Cytotoxicity in human MCF7 cells assessed as maximum drug level not causing reduction in cell viability incubated for 6 days by acid red-52 staining based assay

[2] = target: T1, Estrogen receptor beta (Homo sapiens, UniProt Q92731)
T1 sequence (Q92731 whole entry): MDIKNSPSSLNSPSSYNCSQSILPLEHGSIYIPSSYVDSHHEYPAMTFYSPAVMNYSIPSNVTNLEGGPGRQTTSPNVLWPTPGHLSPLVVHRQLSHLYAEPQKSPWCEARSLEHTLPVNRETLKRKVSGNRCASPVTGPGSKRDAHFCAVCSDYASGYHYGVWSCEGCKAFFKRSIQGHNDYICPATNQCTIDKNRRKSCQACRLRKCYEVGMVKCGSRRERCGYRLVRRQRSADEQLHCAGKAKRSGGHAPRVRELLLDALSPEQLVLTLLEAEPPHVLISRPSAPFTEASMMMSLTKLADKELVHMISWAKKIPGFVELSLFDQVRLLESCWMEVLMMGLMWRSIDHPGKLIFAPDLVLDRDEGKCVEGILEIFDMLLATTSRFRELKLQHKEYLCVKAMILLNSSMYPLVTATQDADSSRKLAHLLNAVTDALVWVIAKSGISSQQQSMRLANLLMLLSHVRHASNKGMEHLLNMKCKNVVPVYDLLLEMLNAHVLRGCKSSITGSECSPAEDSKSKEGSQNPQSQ
Description: (§1) Displacement of [3H]E2 from GST-fused ERbeta-LBD (unknown origin) expressed in Escherichia coli BL21 incubated for 1 hr by liquid scintillation counting method

[3] = target: T2, Estrogen receptor (Homo sapiens, UniProt P03372)
T2 sequence (P03372 whole entry): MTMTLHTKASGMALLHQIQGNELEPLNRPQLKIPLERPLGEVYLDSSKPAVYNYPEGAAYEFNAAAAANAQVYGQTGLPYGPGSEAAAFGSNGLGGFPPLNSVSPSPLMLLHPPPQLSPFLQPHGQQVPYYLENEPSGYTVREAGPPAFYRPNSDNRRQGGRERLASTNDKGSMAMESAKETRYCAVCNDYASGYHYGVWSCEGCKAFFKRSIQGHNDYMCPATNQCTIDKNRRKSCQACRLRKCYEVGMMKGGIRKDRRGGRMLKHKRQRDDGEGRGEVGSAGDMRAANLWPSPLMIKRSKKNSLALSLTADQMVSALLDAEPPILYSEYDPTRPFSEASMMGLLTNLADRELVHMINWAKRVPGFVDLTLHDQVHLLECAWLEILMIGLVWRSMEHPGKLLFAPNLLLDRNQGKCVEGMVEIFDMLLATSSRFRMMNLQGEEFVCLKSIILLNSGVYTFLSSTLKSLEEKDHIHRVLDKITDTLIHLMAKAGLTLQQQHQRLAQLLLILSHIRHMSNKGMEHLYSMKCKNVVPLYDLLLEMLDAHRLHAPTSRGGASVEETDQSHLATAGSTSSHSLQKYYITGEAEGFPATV
Description: Displacement of [3H]E2 from GST-fused ERalpha-LBD (unknown origin) expressed in Escherichia coli BL21 incubated for 1 hr by liquid scintillation counting method

[4] = tested on: MCF7; experiment: cells; type: functional, cell-based; conditions: Homo sapiens, MCF7, 144 h
Description: Inhibition of 17-beta estradiol-induced cell proliferation in human MCF7 cells incubated for 6 days by acid red-52 staining based assay

[5] = target: T3, Estrogen-related receptor gamma (Homo sapiens, UniProt P62508)
T3 sequence (P62508 whole entry): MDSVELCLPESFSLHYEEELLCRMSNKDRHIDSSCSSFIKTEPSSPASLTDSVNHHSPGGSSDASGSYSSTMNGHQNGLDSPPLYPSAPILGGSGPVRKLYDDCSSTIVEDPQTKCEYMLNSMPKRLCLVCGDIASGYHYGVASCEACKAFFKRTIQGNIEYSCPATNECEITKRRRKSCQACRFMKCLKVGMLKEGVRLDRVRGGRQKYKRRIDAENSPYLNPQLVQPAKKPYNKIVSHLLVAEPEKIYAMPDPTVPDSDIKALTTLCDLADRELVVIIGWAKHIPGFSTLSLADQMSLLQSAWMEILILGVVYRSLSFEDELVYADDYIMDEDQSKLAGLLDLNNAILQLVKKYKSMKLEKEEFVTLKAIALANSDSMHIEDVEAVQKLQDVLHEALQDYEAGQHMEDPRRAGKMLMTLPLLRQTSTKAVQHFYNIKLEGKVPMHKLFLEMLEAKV
Description: Binding affinity to human ERRgamma

[6] = target: T2, Estrogen receptor; remark: listed apart in the source
Description: Antagonist activity at full length ERalpha (unknown origin) expressed in human HeLa cells incubated for 24 hrs by ERE-driven luciferase reporter gene assay

[7] = target: T1, Estrogen receptor beta; remark: listed apart in the source
Description: as §1

[8] = target: T2, Estrogen receptor; remark: listed apart in the source
Description: Agonist activity at full length ERalpha (unknown origin) expressed in human HeLa cells incubated for 24 hrs by ERE-driven luciferase reporter gene assay

[9] = target: T4, Estrogen receptor (Homo sapiens) (UniProt P03372); experiment: Antagonist activity at full length ERalpha (unknown origin) expressed in human HeLa cells up to 10 uM incubated for 24 hrs by ERE-driven luciferase reporter gene assay; type: cell-based
T4 sequence (whole entry): T2 sequence (P03372 whole entry)

[10] = target: T1, Estrogen receptor beta; experiment: Antagonist activity at full length ERbeta (unknown origin) expressed in human HeLa cells incubated for 24 hrs by ERE-driven luciferase reporter gene assay
[11] = target: T1, Estrogen receptor beta; experiment: Antagonist activity at full length ERbeta (unknown origin) expressed in human HeLa cells assessed as reduction in 17-beta estradiol-induced response at 10^-5M incubated for 24 hrs by ERE-driven luciferase reporter gene assay relative to untreated control; type: cell-based

MNTC at 144 h ([1]; MCF7 cells): > 100 µM
Compound: c1ccc(-c2c3ccccc3nc3ccccc23)cc1

Compound: Cl.c1ccc(-c2c3ccccc3nc3cc4ccccc4cc23)cc1
pIC50 [2]: 5.77
pIC50 [3]: 6.04
pIC50 [4]: 5.31
IC50 [5]: Not Active
pIC50 [6]: 5.03
MNTC at 144 h ([1]; MCF7 cells): > 10 µM

Compound: Cl.FC(F)(F)c1cccc2c(-c3ccccc3)c3cc4ccccc4cc3nc12
pIC50 [3]: 5.58
pIC50 [4]: 5.40
IC50 [5]: Not Active
MNTC at 144 h ([1]; MCF7 cells): > 10 µM
IC50 [7]: Not Active

MNTC at 144 h ([1]; MCF7 cells): > 10 µM
Compound: COc1ccc2cc3nc4ccccc4c(-c4ccccc4)c3cc2c1

Compound: FC(F)(F)c1ccc(-c2c3ccccc3nc3cc4ccc(C(F)(F)F)cc4cc23)cc1
pIC50 [4]: 5.03
MNTC at 144 h ([1]; MCF7 cells): > 10 µM

MNTC at 144 h ([1]; MCF7 cells): > 10 µM
Compound: COc1ccc2c(-c3ccc(C(F)(F)F)cc3)c3cc4cc(C(F)(F)F)ccc4cc3nc2c1

MNTC at 144 h ([1]; MCF7 cells): > 1 µM
Compound: FC(F)(F)c1ccc(-c2c3ccc(C(F)(F)F)cc3nc3cc4ccc(C(F)(F)F)cc4cc23)cc1

Compound: c1ccc(-c2c3ccccc3nc3nc4ccccc4cc23)cc1
pIC50 [4]: 6.02

Compound: c1ccc2nc3ccccc3cc2c1
MNTC at 144 h ([1]; MCF7 cells): > 10 µM

MNTC at 144 h ([1]; MCF7 cells): > 10 µM
Compound: COc1cccc2c(-c3ccccc3)c3cc4ccccc4cc3nc12

MNTC at 144 h ([1]; MCF7 cells): > 100 µM
Compound: N#Cc1c2ccccc2cc2c(-c3ccccc3)c3ccccc3nc12

Compound: Cl.Clc1c2ccccc2cc2c(-c3ccccc3)c3ccccc3nc12
pIC50 [2]: 5.60
pIC50 [3]: 5.77
pIC50 [4]: 5.04
IC50 [5]: Not Active
MNTC at 144 h ([1]; MCF7 cells): > 10 µM

Compound: Cl.Oc1cccc2c(-c3ccccc3)c3cc4ccccc4cc3nc12
pIC50 [2]: 6.03
pIC50 [3]: 5.97
pEC50 [8]: 5.88
IC50 [5]: Not Active
MNTC at 144 h ([1]; MCF7 cells): > 10 µM
inhibition [9]: inactive

Compound: CC/C(=C(\c1ccccc1)c1ccc(OCCN(C)C)cc1)c1ccccc1 [TAMOXIFEN CITRATE]
MNTC at 144 h ([1]; mcf7): > 10 µM

MNTC at 144 h ([1]; MCF7 cells): > 1 µM
Compound: COc1ccc2c(-c3ccccc3)c3cc4ccccc4cc3nc2c1

Compound: Cl.Oc1ccc2c(-c3ccccc3)c3cc4ccccc4cc3nc2c1
pIC50 [2]: 6.51
pIC50 [3]: 6.53
pEC50 [8]: 5.13
IC50 [5]: Not Active
MNTC at 144 h ([1]; MCF7 cells): > 1 µM
inhibition [9]: inactive
inhibition [10]: Active

Compound: Cl.Oc1ccc2cc3nc4ccccc4c(-c4ccccc4)c3cc2c1
pIC50 [2]: 6.81
pIC50 [3]: 6.77
pEC50 [8]: 5.84
IC50 [5]: Not Active
MNTC at 144 h ([1]; MCF7 cells): > 10 µM
fold change (FC) [11]: 6
inhibition [9]: inactive
inhibition [10]: Active

Compound: Cl.Clc1ccc2c(-c3ccccc3)c3cc4ccccc4cc3nc2c1
pIC50 [2]: 5.70
pIC50 [3]: 5.78
pIC50 [4]: 4.71
IC50 [5]: Not Active
MNTC at 144 h ([1]; MCF7 cells): > 100 µM

MNTC at 144 h ([1]; MCF7 cells): > 10 µM
Compound: FC(F)(F)c1ccc2nc3cc4ccccc4cc3c(-c3ccccc3)c2c1

Compound: Cl.FC(F)(F)c1ccc2cc3nc4ccccc4c(-c4ccccc4)c3cc2c1
pIC50 [3]: 5.45
pIC50 [4]: 5.03
IC50 [5]: Not Active
pIC50 [6]: 5.27
MNTC at 144 h ([1]; MCF7 cells): > 10 µM
IC50 [7]: Not Active
